For one experiment, the target named is T1, gastrin receptor (Rattus norvegicus, UniProt P30553).
T1 construct: The stomach was excised and flushed with ca. 1 ml of unbuffered physiological saline solution; from tissue; host or cells: isolated whole stomach of immature rats (ca. 21 days old)
T1 sequence (P30553 1-452): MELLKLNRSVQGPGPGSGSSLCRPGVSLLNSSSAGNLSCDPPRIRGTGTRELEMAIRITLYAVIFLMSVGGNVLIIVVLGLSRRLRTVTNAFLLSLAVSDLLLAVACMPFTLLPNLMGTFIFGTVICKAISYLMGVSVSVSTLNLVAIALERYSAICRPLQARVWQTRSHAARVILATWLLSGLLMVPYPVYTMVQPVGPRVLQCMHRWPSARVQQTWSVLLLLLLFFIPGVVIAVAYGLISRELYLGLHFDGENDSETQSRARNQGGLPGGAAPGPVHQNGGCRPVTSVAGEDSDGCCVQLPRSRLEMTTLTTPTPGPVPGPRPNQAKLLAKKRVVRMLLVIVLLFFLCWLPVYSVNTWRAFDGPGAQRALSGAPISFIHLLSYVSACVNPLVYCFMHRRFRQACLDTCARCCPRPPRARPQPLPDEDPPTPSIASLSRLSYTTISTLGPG
In words: gastrin antagonist activity in immature rat stomach assay (pentagastrin dose-response, acid secretion). The conditions noted are these: isolated immature rat stomach, cumulative pentagastrin dose-response curves, read-out: Gastrin pKb (converted). An outline of the steps: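 Isolated, lumen-perfused stomach from immature rats (33-50 g, ca. 21 days) in a 37° organ bath with 3×10^−8 M 5-methylfurmethide, gassed 95% O2/5% CO2. Compound added serosally after 120 min stabilisation; cumulative pentagastrin dose-response curves begun 60 min later, acid secretion followed by perfusate pH.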

In the next experiment the target is T2, CCKB receptor (Mus musculus, UniProt P56481).
T2 construct: The whole brains from male mice (CD1 22-25 g; Charles River) were removed; from tissue; host or cells: cerebral cortex membranes of male CD1 mice
T2 sequence (P56481 1-453): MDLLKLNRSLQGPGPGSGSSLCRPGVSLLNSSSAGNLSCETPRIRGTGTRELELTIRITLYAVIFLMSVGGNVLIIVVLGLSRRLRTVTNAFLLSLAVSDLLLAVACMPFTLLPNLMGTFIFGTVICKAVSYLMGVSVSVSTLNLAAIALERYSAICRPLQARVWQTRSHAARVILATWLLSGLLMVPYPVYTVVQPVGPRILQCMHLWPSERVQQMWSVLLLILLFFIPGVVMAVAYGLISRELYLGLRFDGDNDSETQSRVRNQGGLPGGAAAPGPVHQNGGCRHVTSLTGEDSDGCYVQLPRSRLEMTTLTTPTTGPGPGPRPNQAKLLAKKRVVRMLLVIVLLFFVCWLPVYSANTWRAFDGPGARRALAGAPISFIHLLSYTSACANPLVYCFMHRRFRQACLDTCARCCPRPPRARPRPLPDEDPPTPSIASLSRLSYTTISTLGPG
Put plainly: CCKB receptor radioligand binding assay in mouse cortical membranes. The conditions noted are these: [125I]-CCK8(S) 200 pM, 150 min at 21±3°, read-out: CCKB pKi (converted). Here is the method: The compounds of the examples were tested for binding at the CCKB receptor in mouse cortical membranes by means of a radioligand binding assay. The procedure was as follows:
The whole brains from male mice (CD1 22-25 g; Charles River) were removed and placed in ice-cold buffer (pH 7.2 @ 21±3°) of the following composition (mM); 10 HEPES, 130 NaCl, 4.7 KCl, 5 MgCl2, 1 EDTA and containing 0.25 gl^−1 bacitracin. The cortex was dissected, weighed and homogenised in 40 ml ice-cold buffer using a Teflon-in-glass homogeniser. The homogenate was centrifuged at 39800 g for 20 min […], the supernatant discarded and the pellet resuspended by homogenisation in fresh buffer. The homogenate was recentrifuged (39800 g, 20 min @ 4°) and the final pellet was resuspended in HEPES buffer to give a tissue concentration of 20 mg ml^−1 (original wet weight).
The assay was terminated by rapid filtration through pre-soaked Whatman GF/B filters using a Brandell Cell Harvester. The filters were washed (3×3 ml) with ice-cold 50 mM Tris-HCl (pH 7.4 @ 4° C.) and bound radioactivity determined by counting (1 min) in a gamma-counter.

For `O=C(O)c1cc(NC(=O)c2[nH]c(-c3ccccc3)nc2CC2CCCCCC2)cc(C(=O)O)c1` [Example 24, 5-[(5-Cycloheptylmethyl-2-phenyl-1H-imidazole-4-carbonyl)-amino]-isophthalic Acid], the Kb at gastrin receptor is 479 nM. Further, on CCKB receptor, the Ki was 1000 nM. The matching figures for `CCCc1nc(C(=O)Nc2cccc(C(=O)O)c2)c(CCC23CC4CC(CC(C4)C2)C3)[nH]1` [Example 81, 3-{[5-(2-Adamantan-1-yl-ethyl)-2-propyl-1H-imidazole-4-carbonyl]-amino}-benzoic Acid]: 52.5 nM and 269 nM. As for `O=C(O)c1cccc(NC(=O)c2nc(CC34CC5CC(CC(C5)C3)C4)[nH]c2CCc2ccccc2)c1` [Example 86, 3-[(2-Adamantan-1-ylmethyl-5-phenethyl-1H-imidazole-4-carbonyl)-amino]-benzoic Acid], at gastrin receptor, the Kb was 741 nM. The Ki on CCKB receptor is 1020 nM. Regarding `O=C(O)c1cccc(NC(=O)c2nc(-c3ccccc3)[nH]c2CCC2CCCCCC2)c1` [Example 38, 3-{[5-(2-Cycloheptyl-ethyl)-2-phenyl-1H-imidazole-4-carbonyl]-amino}-benzoic Acid], on CCKB receptor, the Ki was 1120 nM. Same read-out and setting: next, `O=C(Nc1cc(-c2nnn[nH]2)cc(-c2nnn[nH]2)c1)c1cc(-c2ccccc2)[nH]c1CC12CC3CC(CC(C3)C1)C2` [Example 2, 2-Adamantan-1-ylmethyl-5-phenyl-1H-pyrrole-3-carboxylic Acid [3,5-bis-(1H-tetrazol-5-yl)-phenyl]-amide]: 49 nM; `O=C(O)c1cccc(NC(=O)c2cc(-c3ccc4ccccc4c3)[nH]c2CC2CCCCCC2)c1` [Example 14, 3-[(2-Cycloheptylmethyl-5-naphthalen-2-yl-1H-pyrrole-3-carbonyl)-amino]-benzoic Acid]: 1320 nM; `Cc1ncccc1-c1nc(C(=O)Nc2cccc(C(=O)O)c2)c(CCC23CC4CC(CC(C4)C2)C3)[nH]1` [Example 181, 3-{[5-(2-Adamantan-1-yl-ethyl)-2-(2-methyl-pyridine-3-yl)-1H-imidazole-4-carbonyl]-amino}-benzoic Acid]: 676 nM. Same read-out and setting: in the case of `Cc1ccccc1-c1nc(CCc2cccc(C(=O)O)c2)c(C(=O)NCC23CC4CC(CC(C4)C2)C3)[nH]1` [Example 119, 3-{2-[5-(Adamantan-1-ylmethylcarbamoyl)-2-o-tolyl-1H-imidazol-4-yl]-ethyl}-benzoic Acid] it was 282 nM; in that of `O=C(Nc1cc(CO)cc(CO)c1)c1[nH]c(-c2ccc3ccccc3c2)nc1CC1CCCCCC1` [Example 22, 5-Cycloheptylmethyl-2-naphthalen-2-yl-1H-imidazole-4-carboxylic Acid (3,5-bis-hydroxymethyl-phenyl)-amide], 4070 nM. On the same count and under the same terms, next, `O=C(O)c1ccc(NC(=O)c2nc(-c3ccccc3F)[nH]c2CCC23CC4CC(CC(C4)C2)C3)cc1` [Example 51, 4-{[5-(2-Adamantan-1-yl-ethyl)-2-(2-fluoro-phenyl)-1H-imidazole-4-carbonyl]-amino}-benzoic Acid]: 2630 nM; `Cc1ccccc1-c1nc(C(=O)Nc2cccc(C(=O)O)c2)c(CC23CC4CC(CC(C4)C2)C3)[nH]1` [Example 170, 3-[(5-Adamantan-1-ylmethyl-2-o-tolyl-1H-imidazole-4-carbonyl)-amino]-benzoic Acid]: 1450 nM; `COc1ccc(NC(=O)c2nc(-c3ccccc3C)[nH]c2CCC23CC4CC(CC(C4)C2)C3)cc1C(=O)O` [Example 244, 5-{[5-(2-Adamantan-1-yl-ethyl)-2-o-tolyl-1H-imidazole-4-carbonyl]-amino}-2-methoxy-benzoic Acid]: 182 nM. For `Cc1ccccc1-c1nc(C(=O)N2CCCC(C(=O)O)C2)c(CCC23CC4CC(CC(C4)C2)C3)[nH]1` (racemic) [Example 93, (±)-1-[5-(2-Adamantan-1-yl-ethyl)-2-o-tolyl-1H-imidazole-4-carbonyl]-piperidine-3-carboxylic Acid], on CCKB receptor, the Ki is 2510 nM. Still for that read-out and setting: next, `O=C(O)CCNC(=O)c1nc(-c2ccccc2F)[nH]c1CCC12CC3CC(CC(C3)C1)C2` [Example 52, 3-{[5-(2-Adamantan-1-yl-ethyl)-2-(2-fluoro-phenyl)-1H-imidazole-4-carbonyl]-amino}-propionic Acid]: 2570 nM; `O=C(O)c1cccc(NC(=O)c2[nH]c(-c3ccc4ccccc4c3)nc2CC2CCCCCC2)c1` [Example 21, 3-[(5-Cycloheptylmethyl-2-naphthalen-2-yl-1H-imidazole-4-carbonyl)-amino]-benzoic Acid]: 813 nM. On the same count and under the same terms, next, `O=C(O)c1cc(NC(=O)c2[nH]c(-c3ccc4ccccc4c3)nc2CC2CCCCCC2)cc(C(=O)O)c1` [Example 20, 5-[(5-Cycloheptylmethyl-2-naphthalen-2-yl-1H-imidazole-4-carbonyl)-amino]-isophthalic Acid]: 251 nM; `O=C(Nc1cccc(-c2nnn[nH]2)c1)c1cc(-c2ccc3ccccc3c2)[nH]c1CC1CCCCCC1` [Example 16, 2-Cycloheptylmethyl-5-naphthalen-2-yl-1H-pyrrole-3-carboxylic Acid [3-(1H-tetrazol-5-yl)-phenyl]-amide]: 724 nM; `O=C(O)Cc1cccc(NC(=O)c2nc(-c3ccccc3)[nH]c2CCC23CC4CC(CC(C4)C2)C3)c1` [Example 82, (3-{[5-(2-Adamantan-1-yl-ethyl)-2-phenyl-1H-imidazole-4-carbonyl]-amino}-phenyl)-acetic Acid]: 13.2 nM. As for `O=C(O)c1cccc(NC(=O)c2nc(C34CC5CC(CC(C5)C3)C4)[nH]c2CCC23CC4CC(CC(C4)C2)C3)c1` [Example 109, 3-{[2-Adamantan-1-yl-5-(2-adamantan-1-yl-ethyl)-1H-imidazole-4-carbonyl]-amino}-benzoic Acid], the Ki at CCKB receptor was 44.7 nM. The same measure, in the same setting: next, `O=C(O)CNC(=O)c1nc(-c2ccccc2F)[nH]c1CCC12CC3CC(CC(C3)C1)C2` [Example 53, 2-{[5-(2-Adamantan-1-yl-ethyl)-2-(2-fluoro-phenyl)-1H-imidazole-4-carbonyl]-amino}-acetic Acid]: 1660 nM; `O=C(O)c1cccc(NC(=O)c2nc(-c3ccncc3)[nH]c2CCC23CC4CC(CC(C4)C2)C3)c1` [Example 180, 3-{[5-(2-Adamantan-1-yl-ethyl)-2-pyridine-4-yl-1H-imidazole-4-carbonyl]-amino}-benzoic Acid]: 1860 nM; `O=C(O)c1cc(NC(=O)c2[nH]c(-c3ccc4[nH]ccc4c3)nc2CC2CCCCCC2)cc(C(=O)O)c1` [Example 30, 5-[(5-Cycloheptylmethyl-2-(1H-indol-5-yl)-1H-imidazole-4-carbonyl)-amino]-isophthalic Acid]: 1070 nM. On the same count and under the same terms, in the case of `O=C(O)c1cc(NC(=O)c2cc(-c3ccccc3)[nH]c2CCC23CC4CC(CC(C4)C2)C3)cc(C(=O)O)c1` [Example 17, 5-{[2-(2-Adamantan-1-yl-ethyl)-5-phenyl-1H-pyrrole-3-carbonyl]-amino}-isophthalic Acid] it was 209 nM. As to `Cc1ccccc1-c1nc(C(=O)Nc2cc(C(=O)O)ccc2F)c(CCC23CC4CC(CC(C4)C2)C3)[nH]1` [Example 238, 3-{[5-(2-Adamantan-1-yl-ethyl)-2-o-tolyl-1H-imidazole-4-carbonyl]-amino}-4-fluoro-benzoic Acid], the Ki on CCKB receptor was 5890 nM. The same measure, in the same setting: next, `Cc1ccccc1-c1nc(C(=O)Nc2cc(C(=O)O)ccc2Cl)c(CCC23CC4CC(CC(C4)C2)C3)[nH]1` [Example 237, 3-{[5-(2-Adamantan-1-yl-ethyl)-2-o-tolyl-1H-imidazole-4-carbonyl]-amino}-4-chloro-benzoic Acid]: 7590 nM.

The record behind these values is patent US6479531B1, “Gastrin and cholecystokinin receptor ligands” (James Black Foundation Limited, priority 1998, dated 2002).
